Experimental data reported in paper PMC12156367, “Synthesis and Biological Evaluation of Seco-Coumarin/Furoxan Hybrids as Potent Anti-Tumor Agents to Overcome Multidrug Resistance via Multiple Mechanisms” (Molecules, 2025).

Experiments:
[1] = test system: MCF-7/ADR (doxorubicin-resistant human breast cancer cell line); assay: In vitro antiproliferative assay (MTT, 48 h), MCF-7/ADR; format: cell-based; settings: for Selectivity Ratio IC50(MCF-7)/ IC50(MCF-7/ADR): collateral sensitivity; for IC50: Homo sapiens, NCI/ADR-RES, MTT, 48 h, mean of three determinations
Source text: The MDA-MB-468 cell line was procured from the Cell Bank of the Chinese Academy of Sciences. The MCF-7, MCF-7/ADR, MCF-10A, and MDA-MB-231 cell lines were kindly provided by Professor Xianyi Sha (Fudan University, Shanghai, China). The HUVEC cells were kindly provided by Associate Professor Hulie Zeng (Fudan University, Shanghai, China). The MDA-MB-468, MDA-MB-231, MCF-7, MCF-10A, and HUVEC cells were cultivated in DMEM (Service Biotechnology, China) supplemented with 10% FBS (Capricorn Scientific, Germany) and 1% penicillin-streptomycin (Meilunbio, Dalian, China). For the MCF-7/ADR cells, they were cultured in RPMI-1640 (Service Biotechnology, Wuhan, China), containing 10% FBS and 1% penicillin-streptomycin. Additionally, 500 ng/mL of doxorubicin (Sigma-Aldrich, Saint Louis, MO, USA) was incorporated into the RPMI-1640 culture medium to keep drug resistance. All cell lines were cultured in a humidified incubator at 37 °C with a 5% CO2 atmosphere.
Following harvest during logarithmic growth, cells were plated in 96-well culture plates at an initial density of 5000 cells per well. Incubate the plate overnight at 37 °C to allow the cells to adhere. Following the overnight incubation, introduce the compound at the predetermined concentration into each well, and then return the plate to the incubator for an additional 48 h culture period. After the 48 h treatment, carefully aspirate the drug-containing medium from each well. Subsequently, add 150 μL of 0.5 mg/mL MTT (Beyotime, China) solution to each well. Protect the plate from light and incubate it at 37 °C for 4 h to allow the formation of formazan crystals. Finally, add 150 μL of DMSO (Sinopharm, China) to each well and gently mix to ensure complete dissolution of the formazan crystals. The OD value at 570nm was measured using a microplate reader (Thermo Fisher, Waltham, MA, USA). Cell proliferation inhibition was determined using the following formula:Inhibition (%) = [(ODDMSO − ODcompd.)/(ODDMSO − ODblank)] × 100
GraphPad Prism software 9 was used to calculate the IC50 values. The specific calculation process is as follows: Firstly, we input the experimental data into Prism. The data include the concentrations of the experimental compounds and the corresponding biological response values. For instance, in the cell experiment, we recorded the cell viability values at different drug concentrations. Subsequently, we select the option of “Dose–Response–Nonlinear Regression” in the “Analyze” menu for curve fitting. Generally speaking, we use the model of “[Inhibitor] vs. normalized response—Variable slope”. The Prism software fits the data through the nonlinear least squares method and finds the parameter values that can minimize the difference between the model’s predicted values and the actual data. After completing the curve fitting, the software will directly provide the estimated values and confidence intervals of the IC50 value and other relevant parameters. Meanwhile, it will also offer goodness-of-fit indices, such as the correlation coefficient, to evaluate the quality of the fitting. Through the above method, we can accurately calculate the IC50 value, thereby assessing the intensity of the inhibitory or activating effect of the compound on the biological system.

[2] = Solubility experiment (HPLC) in water/acetonitrile; format: physicochemical; settings: in water/acetonitrile (table title)
Experimental: Wavelength: 254 nm; flow rate: 1.0 mL/min; column temperature: 25 °C. Mobile phase: Phase A: water, Phase B: acetonitrile (Table 5).
Compounds were dissolved in chromatographic-grade acetonitrile and diluted to concentrations of 200, 100, 50, 25, 12.5, and 6.25 µg/mL. A standard curve was plotted using the peak area under the curve (AUC) versus concentration. […] The supernatant was filtered through an ultrafiltration membrane and then subjected to HPLC analysis. The solubility of the target compound was determined by substituting the AUC of the test compound into the standard curve. Each measurement was performed in triplicate.

SMILES | Selectivity Ratio IC50(MCF-7)/ IC50(MCF-7/ADR) [1] | Solubility [2] [%] | IC50 [1] [nM]
COc1cc(OCCCOc2no[n+]([O-])c2S(=O)(=O)c2ccccc2)ccc1C(=O)C=Cc1ccccc1 [Compound 6a, 4-(3-(4-cinnamoyl-3-methoxyphenoxy)propoxy)-3-(phenylsulfonyl)-1,2,5-oxadiazole 2-oxide] | 432.6 | 60.8 ± 7.2 | 
COc1cc(OCCCOc2no[n+]([O-])c2S(=O)(=O)c2ccccc2)ccc1C(=O)/C=C/c1ccc(F)cc1 [Compound 6b, (E)-4-(3-(4-(3-(4-fluorophenyl)acryloyl)-3-methoxyphenoxy)propoxy)-3-(phenylsulfonyl)-1,2,5-oxadiazole 2-oxide] | 286.6 | 45.8 ± 3.4 | 
COc1ccc(/C=C/C(=O)c2ccc(OCCOc3no[n+]([O-])c3S(=O)(=O)c3ccccc3)cc2OC)cc1 [Compound 6c, (E)-4-(2-(3-methoxy-4-(3-(4-methoxyphenyl)acryloyl)phenoxy)ethoxy)-3-(phenylsulfonyl)-1,2,5-oxadiazole 2-oxide] | 44.2 | 37.7 ± 5.2 | 
COc1cc(OCCOc2no[n+]([O-])c2S(=O)(=O)c2ccccc2)ccc1C(=O)/C=C/c1ccc(C#N)cc1 [Compound 6e, (E)-4-(2-(4-(3-(4-cyanophenyl)acryloyl)-3-methoxyphenoxy)ethoxy)-3-(phenylsulfonyl)-1,2,5-oxadiazole 2-oxide] | 328.3 | 21.2 ± 3.3 | 
COc1cc(OCCCOc2no[n+]([O-])c2S(=O)(=O)c2ccccc2)ccc1C(=O)/C=C/c1ccc(C#N)cc1 [Compound 6f, (E)-4-(3-(4-(3-(4-cyanophenyl)acryloyl)-3-methoxyphenoxy)propoxy)-3-(phenylsulfonyl)-1,2,5-oxadiazole 2-oxide] | 212.9 | 67.2 ± 6.1 | 
COc1cc(OCCOc2no[n+]([O-])c2S(=O)(=O)c2ccccc2)ccc1C(=O)CCc1ccccc1 [Compound 9a, 4-(2-(3-methoxy-4-(3-phenylpropanoyl)phenoxy)ethoxy)-3-(phenylsulfonyl)-1,2,5-oxadiazole 2-oxide] | 1716.9 | 23.5 ± 4.1 | 
COc1cc(OCCCOc2no[n+]([O-])c2S(=O)(=O)c2ccccc2)ccc1C(=O)CCc1ccccc1 [Compound 9b, 4-(3-(3-methoxy-4-(3-phenylpropanoyl)phenoxy)propoxy)-3-(phenylsulfonyl)-1,2,5-oxadiazole 2-oxide] | 1152.6 | 19.4 ± 3.1 | 
COc1cc(OCCOc2no[n+]([O-])c2S(=O)(=O)c2ccccc2)ccc1C(=O)CCc1ccc(F)cc1 [Compound 9c, 4-(2-(4-(3-(4-fluorophenyl)propanoyl)-3-methoxyphenoxy)ethoxy)-3-(phenylsulfonyl)-1,2,5-oxadiazole 2-oxide] | 137.1 | 40.8 ± 8.2 | 
COc1cc(OCCCOc2no[n+]([O-])c2S(=O)(=O)c2ccccc2)ccc1C(=O)CCc1ccc(F)cc1 [Compound 9d, 4-(3-(4-(3-(4-fluorophenyl)propanoyl)-3-methoxyphenoxy)propoxy)-3-(phenylsulfonyl)-1,2,5-oxadiazole 2-oxide] | 1394.2 | 117 ± 10.8 | 
COc1ccc(CCC(=O)c2ccc(OCCCOc3no[n+]([O-])c3S(=O)(=O)c3ccccc3)cc2OC)cc1 [Compound 9f, 4-(3-(3-methoxy-4-(3-(4-methoxyphenyl)propanoyl)phenoxy)propoxy)-3-(phenylsulfonyl)-1,2,5-oxadiazole 2-oxide] | 943.2 | 125 ± 9.2 | 
COc1cc(OCCCOc2no[n+]([O-])c2S(=O)(=O)c2ccccc2)ccc1C(C)=O [Compound 12b, 4-(3-(4-acetyl-3-methoxyphenoxy)propoxy)-3-(phenylsulfonyl)-1,2,5-oxadiazole 2-oxide] | 65.6 | 384 ± 9.3 | 
O=C(NCc1ccccc1)c1ccc(OCCOc2no[n+]([O-])c2S(=O)(=O)c2ccccc2)cc1O [Compound 16a, 4-(2-(4-(benzylcarbamoyl)-3-hydroxyphenoxy)ethoxy)-3-(phenylsulfonyl)-1,2,5-oxadiazole 2-oxide] | 7.2 | 125 ± 7.1 | 
O=C(NCc1ccc(F)cc1)c1ccc(OCCOc2no[n+]([O-])c2S(=O)(=O)c2ccccc2)cc1O [Compound 16b, 4-(2-(4-((4-fluorobenzyl)carbamoyl)-3-hydroxyphenoxy)ethoxy)-3-(phenylsulfonyl)-1,2,5-oxadiazole 2-oxide] | 27.8 | 31.6 ± 6.8 | 
Nc1ccc(CNC(=O)c2ccc(OCCOc3no[n+]([O-])c3S(=O)(=O)c3ccccc3)cc2O)cc1 [Compound 16c, 4-(2-(4-((4-aminobenzyl)carbamoyl)-3-hydroxyphenoxy)ethoxy)-3-(phenylsulfonyl)-1,2,5-oxadiazole 2-oxide] | 95.4 | 327 ± 11.6 | 
O=C(NCc1ccc(C(F)(F)F)cc1)c1ccc(OCCOc2no[n+]([O-])c2S(=O)(=O)c2ccccc2)cc1O [Compound 16d, 4-(2-(3-hydroxy-4-((4-(trifluoromethyl)benzyl)carbamoyl)phenoxy)ethoxy)-3-(phenylsulfonyl)-1,2,5-oxadiazole 2-oxide] | 257.8 | 61.1 ± 2.6 | 10.5
N#Cc1ccc(CNC(=O)c2ccc(OCCOc3no[n+]([O-])c3S(=O)(=O)c3ccccc3)cc2O)cc1 [Compound 16e, 4-(2-(4-((4-cyanobenzyl)carbamoyl)-3-hydroxyphenoxy)ethoxy)-3-(phenylsulfonyl)-1,2,5-oxadiazole 2-oxide] | 561.9 | 33.8 ± 5.3 | 5.36
O=C(NCc1ccc(O)cc1)c1ccc(OCCOc2no[n+]([O-])c2S(=O)(=O)c2ccccc2)cc1O [Compound 16f, 4-(2-(3-hydroxy-4-((4-hydroxybenzyl)carbamoyl)phenoxy)ethoxy)-3-(phenylsulfonyl)-1,2,5-oxadiazole 2-oxide] | 64.4 | 81.0 ± 7.9 | 
COc1cc(OCCOc2no[n+]([O-])c2S(=O)(=O)c2ccccc2)ccc1C(=O)NCc1ccccc1 [Compound 18a, 4-(2-(4-(benzylcarbamoyl)-3-methoxyphenoxy)ethoxy)-3-(phenylsulfonyl)-1,2,5-oxadiazole 2-oxide] | 47.8 | 70.3 ± 6.1 | 
COc1cc(OCCOc2no[n+]([O-])c2S(=O)(=O)c2ccccc2)ccc1C(=O)NCc1ccc(F)cc1 [Compound 18b, 4-(2-(4-((4-fluorobenzyl)carbamoyl)-3-methoxyphenoxy)ethoxy)-3-(phenylsulfonyl)-1,2,5-oxadiazole 2-oxide] | 101.7 | 60.9 ± 9.8 | 
COc1cc(OCCOc2no[n+]([O-])c2S(=O)(=O)c2ccccc2)ccc1C(=O)NCc1ccc(C(F)(F)F)cc1 [Compound 18d, 4-(2-(3-methoxy-4-((4-(trifluoromethyl)benzyl)carbamoyl)phenoxy)ethoxy)-3-(phenylsulfonyl)-1,2,5-oxadiazole 2-oxide] | 163.0 | 26.2 ± 7.2 | 6.56
COc1cccc2c1C(=O)c1c(O)c3c(c(O)c1C2=O)C[C@@](O)(C(=O)CO)C[C@@H]3O[C@H]1C[C@H](N)[C@H](O)[C@H](C)O1 [doxorubicin, reference compound] | 0.008 |  | 
